The source of these data is patent US7858738B2, “Synthetic human peptides and pharmaceutical compositions comprising them for the treatment of systemic lupus erythematosus” (Yeda Research and Development Co., Ltd., priority 2001, dated 2010).

Experiment [1] relates to lymph node cells of the BALB/c mice. The experiment is described as follows: Cytokine production by 16/6Id-stimulated LNC of treated BALB/c mice (ELISA). As to conditions: BALB/c mice immunized with 16/6Id, hCDR1 50 μg, LNC stimulated with 16/6Id. Type of experiment: in vivo. The method, then: Induction and treatment of experimental SLE. In order to induce experimental SLE, BALB/c mice were immunized with 1-2 μg of the human mAb 16/6Id and boosted 3 weeks later. For the prevention of experimental SLE, mice were given hCDR1 or hCDR3 (mCDR1 or revmCDR1 as control peptide in Example 12) intravenously (i.v.) or s.c. concomitant with the immunization, and were injected weekly thereafter for 5 weeks. Treatment of an established disease started three and a half months following disease induction with the 16/6Id, when clinical manifestations were already observed. In Example 12, mice received 10 weekly injections (i.v. or s.c.) of mCDR1 or revmCDR1 at a dose of 100 μg/mouse. Prevention and treatment of SLE-like disease in (NZB×NZW)F1 mice with the hCDR1 or mCDR1 peptide. For prevention of SLE, mice at the age of 2 months, before disease manifestations are observed, were injected s.c. with hCDR1 (or mCDR1 in Example 12, 250 μg/mouse) once a week for 10 weeks. To treat an established disease, mice at the age of 5-7 months were injected with hCDR1 (in Example 12, mCDR1 s.c., 250 μg/mouse) once a week for 10 weeks. Proliferative Responses. PBL were isolated from heparinized venous blood by Ficoll-Hypaque (Pharmacia) density-gradient centrifugation. […] Results are expressed as the mean thymidine incorporation in counts per minute (CPM) of triplicate culture±SD, or as stimulation index (S.I.; the ratio of mean CPM at the optimal concentration of the human 16/6Id to the mean CPM in the presence of medium alone). […] TGF-β was determined by an ELISA. […] The substrate solution used was TMB color Reagent (Helix Diagnostics, West Sacramento, Calif.), and enzyme activity was evaluated by using 570- and 630-nm filters. […] Proteinuria was measured semiquantitatively by using Combistix kit (Ames Division, Bayer Diagnostics, Newbury, U.K.). White blood cells (WBC, for leukopenia) were counted after a 10-fold dilution of heparinized blood in distilled water containing 1% acetic acid (vol/vol). […]
In general terms: In an ELISA, binding on a coated surface is turned into a signal by an enzyme label.

The next experiment concerns (NZB×NZW)F1 mice. The experiment is described as follows: Treatment of established SLE-like disease in (NZB×NZW)F1 mice. The conditions noted are these: for anti-dsDNA autoantibody O.D. values: sera 1:1250, end of treatment, PBS-treated 0.586±0.1. Format: in vivo. As to the method: Induction and treatment of experimental SLE. In order to induce experimental SLE, BALB/c mice were immunized with 1-2 μg of the human mAb 16/6Id and boosted 3 weeks later. For the prevention of experimental SLE, mice were given hCDR1 or hCDR3 (mCDR1 or revmCDR1 as control peptide in Example 12) intravenously (i.v.) or s.c. concomitant with the immunization, and were injected weekly thereafter for 5 weeks. Treatment of an established disease started three and a half months following disease induction with the 16/6Id, when clinical manifestations were already observed. In Example 12, mice received 10 weekly injections (i.v. or s.c.) of mCDR1 or revmCDR1 at a dose of 100 μg/mouse. Prevention and treatment of SLE-like disease in (NZB×NZW)F1 mice with the hCDR1 or mCDR1 peptide. For prevention of SLE, mice at the age of 2 months, before disease manifestations are observed, were injected s.c. with hCDR1 (or mCDR1 in Example 12, 250 μg/mouse) once a week for 10 weeks. To treat an established disease, mice at the age of 5-7 months were injected with hCDR1 (in Example 12, mCDR1 s.c., 250 μg/mouse) once a week for 10 weeks. Proliferative Responses. PBL were isolated from heparinized venous blood by Ficoll-Hypaque (Pharmacia) density-gradient centrifugation. All assays were performed, in triplicate, in flat-bottomed microtiter plates (Falcon, Becton Dickinson, Oxmard, Calif., USA) in which 2×10^5 PBL were cultured in enriched RPMI-1640 as described (Dayan et al., 2000). The PBL were exposed to various concentrations (0.1-40 μg/well) of the human anti-DNA 16/6Id mAb with and without the addition of the various CDR-based peptides at a concentration of at least 10-fold excess over that of the 16/6Id. Phytohemagglutinin (PHA; 2 μg/well) was used as a control for culture conditions at each experiment. The cultures were incubated in 7.5% CO2 at 37° C. for 6 days. Eighteen hours before the cells were harvested, [^3H]-thymidine (0.5μ Ci of 5 Ci/mmol) (Nuclear Research Center, Negev, Israel) was added to all cultures. Results are expressed as the mean thymidine incorporation in counts per minute (CPM) of triplicate culture±SD, or as stimulation index (S.I.; the ratio of mean CPM at the optimal concentration of the human 16/6Id to the mean CPM in the presence of medium alone). A S.I.≧2 was considered a positive response (Dayan et al., 2000). Inhibition (the ratio of mean CPM in the presence of the 16/6Id and various CDR-based peptides to the mean CPM with the 16/6Id without the CDR-based peptide) above 50% was considered positive. Induction of Cytokine Production. Mice that were immunized with the human 16/6Id mAb and either treated or not with the CDR-based peptide, were killed at different periods during or after treatment with the peptide. Splenocytes and lymph node cells (LNC) were harvested and incubated (5×10^6/ml) in the presence of the 16/6Id. Supernatants were collected after 48 and 72 h. Assessment of Cytokines in the Supernatants. Supernatants were collected 48 hours following the initiation of the cultures and stored at −70° C. Measurements of IL-2, IL-10, IFN-γ, and TNF-α were performed by ELISA by using the relevant standards, capture and detecting Abs (Pharmingen) according to the manufacturer's instructions. TGF-β was determined by an ELISA. Briefly, plates were coated with the recombinant human TGF-β1 sRIII/Fc chimera (R & D Systems Inc., Minneapolis, Minn., USA), and the second Ab used was the biotinylated anti-human TGF-β1 antibody (R & D Systems Inc.). The substrate solution used was TMB color Reagent (Helix Diagnostics, West Sacramento, Calif.), and enzyme activity was evaluated by using 570- and 630-nm filters. Detection of SLE-Associated Clinical and Pathological Manifestations. Proteinuria was measured semiquantitatively by using Combistix kit (Ames Division, Bayer Diagnostics, Newbury, U.K.). White blood cells (WBC, for leukopenia) were counted after a 10-fold dilution of heparinized blood in distilled water containing 1% acetic acid (vol/vol). […]

For another experiment, the system named is BALB/c-derived LNCs. The experiment is described as follows: In vivo inhibition of proliferation of LNC of BALB/c mice immunized with mCDR1. As to conditions: maximum % inhibition; 200 μg s.c. in PBS concomitant with immunization; LNC tested ten days later. As to the method:
(§1) To this end, BALB/c and SJL mice were immunized with mCDR1 and mCDR3, respectively. The immunizing murine peptides were injected (10 μg/mouse) in CFA intradermally in the hind footpads. Concomitant with the immunization, groups of BALB/c mice were injected subcutaneously (s.c.) with 200 μg in PBS of hCDR1 and groups of SJL mice were similarly injected with hCDR3. Ten days after the immunization, mice were sacrificed and their lymph nodes were harvested and the cells were tested for their ability to proliferate following triggering with the immunizing peptides. Briefly, LNCs of immunized mice (0.5×10^6/well) were cultured (in triplicates) in the presence of different concentrations (1-20 μg/well) of the murine immunizing peptides in enriched RPMI-1640 medium supplemented with 1% normal mouse serum. Following four days of incubation, ^3H-thymidine was added for additional 16 hours. Cells were then harvested and radioactivity was counted using a β-counter.
(§2) The inhibition was calculated based on the proliferation of LNCs of mice that were not treated with the inhibitory peptides hCDR1 and hCDR3. It can be seen that hCDR1 and hCDR3 were capable of inhibiting the proliferative responses to the immunizing murine CDR peptides.

For another experiment, the system named is SJL-derived LNCs. The experiment is described as follows: In vivo inhibition of proliferation of LNC of SJL mice immunized with mCDR3. As to conditions: maximum % inhibition; 200 μg s.c. in PBS concomitant with immunization; LNC tested ten days later. As to the method: as §1, §2
[2] abbreviates: age 7 months, 10 weeks, 100 μg/mouse or 300 μg/mouse.

Turning to “GYYWSWIRQPPGKGEEWIG (Human) [hCDR1, 19-mer peptide based on the CDR1 of the heavy chain of the human 16/6Id mAb]”, the “production of INF-γ” value in experiment [1] (FIG. 3A) was “down-regulated”. In experiment [1] (FIG. 3B), the “secretion of TGF-β” value is “up-regulated”. Besides, the “secretion of IL-10” value in experiment [1] (FIG. 3C) was “up-regulated”. The “anti-dsDNA autoantibody O.D. values” in the experiment on (NZB×NZW)F1 mice (50 μg/mouse s.c. weekly for 10 weeks from age 5 and a half months) is on record as 0.27±0.1 O.D; with (NZB×NZW)F1 mice (100 μg/mouse s.c. weekly for 10 weeks from age 5 and a half months), 0.37±0.1 O.D; in the experiment with (NZB×NZW)F1 mice (200 μg/mouse s.c. weekly for 10 weeks from age 5 and a half months), 0.29±0.1 O.D. In the experiment with (NZB×NZW)F1 mice (100 μg dose, mice sacrificed at 9 months, FIGS. 11A-11D), the “number and intensity of immune complexes in kidney sections” value is recorded as “reduced the number of immune complexes as well as their intensity”. Besides, the “Proteinuria g/L ± SEM” value is 1.08 ± 0.38 g/L with (NZB×NZW)F1 mice (300 μg/mouse s.c. weekly for 10 weeks at the age of 7 months, untreated 4.80 ± 2.56); 0.61 ± 0.23 g/L in the experiment with (NZB×NZW)F1 mice (300 μg/mouse, age 7 months, following treatment No 5, untreated 2.65 ± 1.76); 0.65 ± 0.32 g/L with (NZB×NZW)F1 mice (300 μg/mouse, age 7 months, following treatment No 7, untreated 3.89 ± 2.73); 1.02 ± 0.39 g/L in the experiment on (NZB×NZW)F1 mice (300 μg/mouse, age 7 months, following treatment No 9, untreated 7.55 ± 3.95); 0.77 ± 0.32 g/L with (NZB×NZW)F1 mice (400 μg/mouse at the age of 6 months, untreated 4.99 ± 2.53). Further, the “Immune Complex Deposits ± SEM” value in the experiment on (NZB×NZW)F1 mice (300 μg/mouse, age 7 months, intensity 0=no ICD to 3=severe and extremely intense ICD, untreated 2.57 ± 0.29, p = 0.035) is 1.44 ± 0.41; in the experiment on (NZB×NZW)F1 mice (400 μg/mouse, age 6 months, intensity score 0-3, untreated 2 ± 0.29, p = 0.05) it was 1.42 ± 0.19. For the same sequence, the “anti-DNA antibody titers in sera” value with (NZB×NZW)F1 mice (7-month old mice, 300 μg s.c. weekly for 10 weeks) is reported as “mild reduction”. Also, the anti-dsDNA autoantibody titers entry with (NZB×NZW)F1 mice (50, 100 and 200 μg/mouse s.c. weekly for 10 weeks from age 5 and a half months) is “moderate reduction”. The anti-DNA autoantibody titers entry in the experiment on (NZB×NZW)F1 mice (setting [2]) is reported as “moderate reduction”. In the experiment on (NZB×NZW)F1 mice (setting [2]), the “proteinuria in comparison to the PBS-treated group” value is “reduction”. In addition, the kidney disease result is listed as “ameliorated” in the experiment on (NZB×NZW)F1 mice (age 7 months, 10 weeks, 100 or 300 μg/mouse, more significant effect with 300 μg); “reduced significantly” in the experiment on (NZB×NZW)F1 mice (ten-week treatment, 50 μg dose less efficient than 100 and 200 μg). Further, the “% Inhibition of the proliferation of BALB/c-derived LNCs to mCDR1” value in the experiment on BALB/c-derived LNCs came out at 55%.

For “YYCARGLLRGGWNDVDYYGMDV (Human) [hCDR3, peptide based on the CDR3 of the heavy chain of the human 16/6Id mAb]”, in the experiment on SJL-derived LNCs, the “% Inhibition of the proliferation of SJL-derived LNCs to mCDR3” value turned out to be 55%.
